Assay results reported in PMC7178755 (Toxicology and applied pharmacology, 2019).

Test: Plasma toxicokinetics after single intravenous administration in mice
Type: in vivo, B6C3F1/N mice
Settings: for AUC(0-inf) / Cmax / Vd / half-life: B6C3F1/N, mouse, iv, 34 mg/kg; for half-life / Cl1 / Cl2 / K12 / K21 / V1 / V2: free BPAF, 34 mg/kg IV, mean (SE)

Q: Which results are given for `Oc1ccc(C(c2ccc(O)cc2)(C(F)(F)F)C(F)(F)F)cc1` [BPAF, Bisphenol AF]?
A: AUC(0-inf) (female): 15.8 µg·h/mL; Cmax (female): 92.3 µg/mL; Vd (female): 1.36 L/kg; half-life (female, Alpha half-life, female mice): 6.36 min; half-life (female, Beta half-life, female mice): 182 min; half-life (female, K10 Half-Life, female mice): 7.14 min; Cl1 (female mice): 2.15 (0.426) L/h/kg; Cl2 (female mice): 0.256 (0.108) L/h /kg; K12 (female mice): 0.696 (0.190) 1/h; K21 (female mice): 0.257 (0.0225) 1/h; V1 (female mice): 0.368 (0.129) L/kg; V2 (female mice): 0.995 (0.388) L/kg; Cl1 (male mice): 4.51 (0.547) L/h/kg; Cl2 (male mice): 0.860 (0.324) L/h /kg; K12 (male mice): 0.189 (0.0802) 1/h; K21 (male mice): 0.227 (0.0304) 1/h; V1 (male mice): 4.54 (1.06) L/kg; V2 (male mice): 3.78 (1.10) L/kg; AUC(0-inf) (male): 7.54 µg·h/mL; Cmax (male): 7.49 µg/mL; Vd (male): 8.32 L/kg; half-life (male, Alpha half-life, male mice): 34 min; half-life (male, Beta half-life, male mice): 226 min; half-life (male, K10 Half-Life, male mice): 41.9 min
